# Where two headings read alike, the source gives them in different places.
# What was measured:
# Test in all cases: MIC (Minimum Inhibitory Concentration)
# Type in all cases: cell-based
# Bacillus subtilis = settings: ATCC6633; Bacillus subtilis ATCC 6633
# Candida albicans = test system: Candida albicans
# Diplococcus pneumoniae = settings: Streptococcus pneumoniae; Diplococcus pneumoniae A 2783
# Pasteurella multocida = Pasteurella multocida A 723; read-out: MIC values
# Proteus morganii = settings: Morganella morganii; Proteus morganii 2241
# Staphylococcus aureus = test system: Staphylococcus aureus
# [1] = test system: Streptococcus haemolyticus; settings: Streptococcus haemolyticus A 1088; read-out: MIC values
# Trichophyton equinum = test system: Trichophyton equinum
# [2] = test system: Trichophyton mentagrophytus
# Trichophyton quickeaneum = Trichophyton quickeaneum A 2040; read-out: MIC values
# Trichophyton rubrum = test system: Trichophyton rubrum
# [3] = test system: Trichophyton schoenleinii; settings: Trichophyton schoenleinii 435-63; read-out: MIC values
# [4] = test system: Trichophyton soudanese joyeux; settings: Trichophyton soudanese joyeux 440-63; read-out: MIC values
# Trichophyton tonsurans = Trichophyton tonsurans 561-50; read-out: MIC values
# Trichophyton verrucosum = test system: Trichophyton verrucosum
# Trichophyton violoceum = Trichophyton violoceum 442-62; read-out: MIC values
# Fusarium (bulb) = Fusarium (bulb) A 3252
# Fusarium (tulip) = Fusarium (tulip) A 3253
# Fusarium solani = Fusarium solani A 3245; read-out: MIC values
# Rhizoctonia solani = Rhizoctonia solani 200-25; read-out: MIC values
# [5] = Candida albicans A 7, read-out: MIC values
# [6] = Candida albicans A 3140, read-out: MIC values
# [7] = Candida albicans A 3141, read-out: MIC values
# [8] = Candida albicans A 3142, read-out: MIC values
# [9] = Candida albicans A 3143, read-out: MIC values
# [10] = Candida albicans A 3144, read-out: MIC values
# [11] = Candida albicans A 3145, read-out: MIC values
# [12] = Candida albicans A 3165, read-out: MIC values
# [13] = Candida albicans A 3166, read-out: MIC values
# [14] = Candida albicans A 3167, read-out: MIC values
# [15] = Candida albicans A 3168, read-out: MIC values
# [16] = Candida albicans A 3169, read-out: MIC values
# [17] = Candida albicans A 3171, read-out: MIC values
# [18] = Candida albicans A 3184, read-out: MIC values
# [19] = Candida albicans A 3190, read-out: MIC values
# [20] = Candida albicans A 3191, read-out: MIC values
# [21] = Candida albicans A 3192, read-out: MIC values
# [22] = Candida albicans A 3194, read-out: MIC values
# [23] = Candida albicans A 3196, read-out: MIC values
# [24] = Trichophyton equinum 182-76, read-out: MIC values
# [25] = Trichophyton equinum 441-51, read-out: MIC values
# [26] = Trichophyton equinum 856-71, read-out: MIC values
# [27] = Trichophyton mentagrophytus 367-68, read-out: MIC values
# [28] = Trichophyton mentagrophytus 421-67, read-out: MIC values
# [29] = Trichophyton mentagrophytus A 3252, read-out: MIC values
# [30] = Trichophyton mentagrophytus R 177, read-out: MIC values
# [31] = Trichophyton mentagrophytus R 178, read-out: MIC values
# [32] = Trichophyton mentagrophytus RRL 305, read-out: MIC values
# [33] = Trichophyton rubrum 218-65, read-out: MIC values
# [34] = Trichophyton rubrum 494-62, read-out: MIC values
# [35] = Trichophyton rubrum A 810, read-out: MIC values
# [36] = Trichophyton verrucosum 134-66, read-out: MIC values
smiles,measurement,setting,value
"[C-]#[N+]C(=CC(C)(C)C)S(=O)(=O)c1ccc(C)cc1 [Example 4, 3,3-dimethyl-1-isocyano-1-(4-toluenesulphonyl)-1-butene]",MIC,Bacillus subtilis,12.5 µg/mL
same,MIC,Candida albicans; [5],6 µg/mL
same,MIC,Candida albicans; [6],12.5 µg/mL
same,MIC,Candida albicans; [7],> 100 µg/mL
same,MIC,Candida albicans; [8],50 µg/mL
same,MIC,Candida albicans; [9],6 µg/mL
same,MIC,Candida albicans; [10],50 µg/mL
same,MIC,Candida albicans; [11],> 100 µg/mL
same,MIC,Candida albicans; [12],50 µg/mL
same,MIC,Candida albicans; [13],12.5 µg/mL
same,MIC,Candida albicans; [14],50 µg/mL
same,MIC,Candida albicans; [15],50 µg/mL
same,MIC,Candida albicans; [16],100 µg/mL
same,MIC,Candida albicans; [17],50 µg/mL
same,MIC,Candida albicans; [18],100 µg/mL
same,MIC,Candida albicans; [19],50 µg/mL
same,MIC,Candida albicans; [20],50 µg/mL
same,MIC,Candida albicans; [21],25 µg/mL
same,MIC,Candida albicans; [22],> 100 µg/mL
same,MIC,Candida albicans; [23],25 µg/mL
same,MIC,Diplococcus pneumoniae,6 µg/mL
same,MIC,Pasteurella multocida,3 µg/mL
same,MIC,Proteus morganii,100 µg/mL
same,MIC,Staphylococcus aureus; Staphylococcus aureus A 321,12.5 µg/mL
same,MIC,Staphylococcus aureus; Staphylococcus aureus A 355,6 µg/mL
same,MIC,Staphylococcus aureus; Staphylococcus aureus A 2000,6 µg/mL
same,MIC,[1],1.5 µg/mL
same,MIC,Trichophyton equinum; [24],3 µg/mL
same,MIC,Trichophyton equinum; [25],< 0.05 µg/mL
same,MIC,Trichophyton equinum; [26],0.2 µg/mL
same,MIC,[2]; [27],0.2 µg/mL
same,MIC,[2]; [28],0.8 µg/mL
same,MIC,[2]; [29],1.5 µg/mL
same,MIC,[2]; [30],6 µg/mL
same,MIC,[2]; [31],> 100 µg/mL
same,MIC,[2]; [32],3 µg/mL
same,MIC,Trichophyton quickeaneum,3 µg/mL
same,MIC,Trichophyton rubrum; [33],0.1 µg/mL
same,MIC,Trichophyton rubrum; [34],0.8 µg/mL
same,MIC,Trichophyton rubrum; [35],6 µg/mL
same,MIC,[3],< 0.05 µg/mL
same,MIC,[4],3 µg/mL
same,MIC,Trichophyton tonsurans,1.5 µg/mL
same,MIC,Trichophyton verrucosum; [36],< 0.05 µg/mL
same,MIC,"Trichophyton verrucosum; Trichophyton verrucosum N 3, read-out: MIC values",0.1 µg/mL
same,MIC,Trichophyton violoceum,0.05 µg/mL
"[C-]#[N+]C(=Cc1ccco1)S(=O)(=O)c1ccc(C)cc1 [Example 10, 2-(2-furyl)-1-isocyano-1-(4-toluenesulphonyl)-ethene]",MIC,Bacillus subtilis,6 µg/mL
same,MIC,Candida albicans; [5],0.2 µg/mL
same,MIC,Candida albicans; [6],0.2 µg/mL
same,MIC,Candida albicans; [7],0.4 µg/mL
same,MIC,Candida albicans; [8],0.4 µg/mL
same,MIC,Candida albicans; [9],0.2 µg/mL
same,MIC,Candida albicans; [10],0.2 µg/mL
same,MIC,Candida albicans; [11],0.8 µg/mL
same,MIC,Candida albicans; [12],0.4 µg/mL
same,MIC,Candida albicans; [13],0.4 µg/mL
same,MIC,Candida albicans; [14],0.4 µg/mL
same,MIC,Candida albicans; [15],0.4 µg/mL
same,MIC,Candida albicans; [16],0.4 µg/mL
same,MIC,Candida albicans; [17],0.4 µg/mL
same,MIC,Candida albicans; [18],0.2 µg/mL
same,MIC,Candida albicans; [19],0.4 µg/mL
same,MIC,Candida albicans; [20],0.4 µg/mL
same,MIC,Candida albicans; [21],0.2 µg/mL
same,MIC,Candida albicans; [22],0.4 µg/mL
same,MIC,Candida albicans; [23],0.4 µg/mL
same,MIC,Diplococcus pneumoniae,6 µg/mL
same,MIC,Fusarium (bulb),25 µg/mL
same,MIC,Fusarium (tulip),12.5 µg/mL
same,MIC,Fusarium solani,25 µg/mL
same,MIC,Pasteurella multocida,< 1.5 µg/mL
same,MIC,Proteus morganii,6 µg/mL
same,MIC,Rhizoctonia solani,1.5 µg/mL
same,MIC,Staphylococcus aureus; Staphylococcus aureus A 321,12.5 µg/mL
same,MIC,Staphylococcus aureus; Staphylococcus aureus A 355,12.5 µg/mL
same,MIC,Staphylococcus aureus; Staphylococcus aureus A 2000,12.5 µg/mL
same,MIC,[1],6 µg/mL
same,MIC,Trichophyton equinum; [24],1.5 µg/mL
same,MIC,Trichophyton equinum; [25],< 0.05 µg/mL
same,MIC,Trichophyton equinum; [26],< 0.05 µg/mL
same,MIC,[2]; [27],0.1 µg/mL
same,MIC,[2]; [28],1.5 µg/mL
same,MIC,[2]; [29],3 µg/mL
same,MIC,[2]; [30],1.5 µg/mL
same,MIC,[2]; [31],100 µg/mL
same,MIC,[2]; [32],0.1 µg/mL
same,MIC,Trichophyton quickeaneum,3 µg/mL
same,MIC,Trichophyton rubrum; [33],0.1 µg/mL
same,MIC,Trichophyton rubrum; [34],0.1 µg/mL
same,MIC,Trichophyton rubrum; [35],< 0.05 µg/mL
same,MIC,[3],0.1 µg/mL
same,MIC,[4],6 µg/mL
same,MIC,Trichophyton tonsurans,3 µg/mL
same,MIC,Trichophyton verrucosum; [36],0.2 µg/mL
same,MIC,"Trichophyton verrucosum; Trichophyton verrucosum A 2922, read-out: MIC values",< 0.05 µg/mL
same,MIC,Trichophyton violoceum,0.1 µg/mL
